Assay results reported in patent US8686028B2, “Substituted benzfurochromenes and related compounds for the prevention and treatment of bone related disorders” (Council of Scientific & Industrial Research, priority 2008, dated 2014).
One block for each compound: values may come before it.

Key:
[1] = tested on: Calvarial osteoblasts; experiment: Alkaline phosphatase (ALP) activity for osteoblast differentiation, calvarial osteoblasts; format: cell-based, rat; settings: for stimulation of ALP activity: osteoblasts, concentrations not given
Procedure: (§1) Neonatal rat calvarial cell cultures are prepared as described previously (Endocrinology 145:3451) using slight modification. Briefly, for primary osteoblast cell cultures, frontal and parietal bones from Sprague-Dawley rat neonates (1-3 day old) are digested in 0.1% collagenase/0.1% dispase in α-MEM to obtain 5 sequential digests. The second through fifth digests are combined and grown to confluence at 37° C. and 5% CO2 in air in α-MEM, supplemented with 10% fetal bovine serum (FBS), 2 mM glutamine, 100 U/ml penicillin-streptomycin, Non-essential amino acid solution and sodium pyruvate.
70 to 80% confluent Calvarial osteoblasts were treated with μM S006-1709 for 48 h in the presence of ascorbate and glycerophosphate. At the end of incubation period, total ALP activity was measured with a method using p-nitrophenylphosphate (PNPP) as substrate. The reaction mixture contained diethanolamine buffer (1 mol/L, pH 9.8), 0.5 mmol/L MgCl2.6H2O, and 10 mmol/L PNPP. ALP activity was measured by taking OD of the amount of colored product formed by the dephosphorylation of PNPP at 405 nm. […] In addition, the effect of S006-1709 on mineralization of calvarial osteoblasts was studied.
We then studied its effect in osteoblast differentiation in both calvarial and bone marrow osteoblasts. Confluent calvarial osteoblasts (70 to 80%) were treated with S006-1710 for 48 h in the presence of ascorbate and glycerophosphate at concentrations ranging from 10^−16M to 10^−6M. At the end of incubation period, total ALP activity was measured with the same method used previously using p-nitrophenylphosphate (PNPP) as substrate.
70 to 80% confluent Calvarial osteoblasts were treated with S007-1351 for 48 h in the presence of ascorbate and glycerophosphate. At the end of incubation period, total ALP activity was measured with a method using p-nitrophenylphosphate (PNPP) as substrate. The reaction mixture contained diethanolamine buffer (1 mol/L, pH 9.8), 0.5 mmol/L MgCl2.6H2O, and 10 mmol/L PNPP. ALP activity was measured by taking OD of the amount of colored product formed by the dephosphorylation of PNPP at 405 nm.
70 to 80% confluent calvarial osteoblasts were treated with S007-1352 for 48 h in the presence of ascorbate and glycerophosphate at concentrations ranging from 10^−12M to 10^−6 M. At the end of incubation period, total ALP activity was measured with the same method used previously using p-nitrophenylphosphate (PNPP) as substrate.

[2] = tested on: 3T3-L1 cells; experiment: Anti-adipogenic effect (Oil Red O) in 3T3-L1 cells; format: cell-based, mouse; settings: 3T3L1, both concentrations (10^−10 M and 10^−12M)
Procedure: The best characterized model of adipogenesis in vitro is the 3T3-L1 cell line, a substrain of Swiss 3T3 mouse cell line. 3T3-L1 cells propagated under normal conditions have a fibroblastic phenotype. However, when treated with a combination of dexamethasone, isobutylmethylxanthine (IBMX or MIX) and insulin, 3T3-L1 cells adopt a rounded phenotype and within 5 days begin to accumulate lipids intracellularly in the form of lipid droplets.
3T3-L1 cells were plated in 48-well plates 40,000 cells/well. The cells were incubated in DMEM containing fetal calf serum for 2 days until the cells become confluent. The cells were then incubated with Adipogenesis initiation media which contains DMEM with 10% FCS, IBMX and dexamethasone for 48 hrs at 37° C., 5% CO2. After two days the media was replaced with Adipogenesis Progression media which contains DMEM/10% FCS and insulin for 48 hrs at 37° C., 5% CO2, Media was again changed gently to Adipogenesis maintenance media for 48 hrs at 37° C., 5% CO2. At the end of eight days of experiment the cells were fixed and then stained with Oil Red O which stains lipid droplets. The dye was extracted and extracted dye was transferred to a 96-well plate and absorbance of extracted Oil Red O was measured in a plate reader at 490 nm.
Compounds S006-1709, S007-1351-53, S007-1495 and S007-1500 were tested in vitro in 3T3L1 cell line at two concentrations 10^−10 M and 10^−12M. FIG. 8A depicts the adipocytes formed at the end of the 8 day experiment. The fixed cells were stained with Oil Red O. The dye was then extracted and quantified.

[3] = tested on: Calvarial osteoblast cells; experiment: MTT cell proliferation assay; format: cell-based, rat; settings: 10^−10 M to 10^−6M, 24 hrs
Procedure: as §1
MTT [3-(4,5-dimethylthiazol-2-yl)-2,5-diphenyltetrazolium bromide] assay, first described by Mosmann in 1983, is based on the ability of a mitochondrial dehydrogenase enzyme from viable cells to cleave the tetrazolium rings of the pale yellow MTT and form a dark blue formazan crystals which is largely impermeable to cell membranes, thus resulting in its accumulation within healthy cells. Solubilisation of the cells by the addition of a detergent results in the liberation of the crystals which are solubilized. The number of surviving cells is directly proportional to the level of the formazan product created. The color can then be quantified using a simple colorimetric assay. The results can be read on a multiwell scanning spectrophotometer (Mosmann T. Rapid colorimetric assay for cellular growth and survival: application to proliferation and cytotoxicity assays. J Immunol Methods. 1983 Dec. 16; 65(1-2):55-63).
Calvarial osteoblast cells plated at a density of 2.0×10^3 cells/200 ul in 96 wells plates. Cells were grown to 60% confluency and then treated with following compounds S006-1709, S006-1710, 5006-1711, S006-1713 and; S006-1714 at concentrations ranging from 10^−10 M to 10^−6M for 24 hrs. After treatment media was removed and 10 mM MTT was added solution in phenol red free DMEM media. After an incubation of 4 hrs the MTT solution was removed. Blue colored crystals were formed which were dissolved in DMSO and absorbance was read on ELISA plate reader at 570 nm wavelength.

[4] = tested on: ovariectomized immature female rats; experiment: Estrogenicity, uterine fresh weight in ovariectomized immature female rats; format: in vivo, rat; settings: three consecutive days, vehicle 16.46
Procedure: (§2) 21 day old immature female rats (25-30 grams) were ovariectomized and given 7 days post-operative rest. Thereafter they were treated orally with the test agent (10 mg/Kg body weight) or with vehicle or Ethynyl estradiol, the reference standard for three consecutive days. For anti-estrogenicity, other than the test chemical, ethynyl estradiol (0.01 mg/kg) was given at 15 minutes interval before the test chemical. Autopsy was done 24 h after last treatment and uterine fresh weight was taken.

[5] = tested on: ovariectomized immature female rats; experiment: Anti-estrogenicity, uterine fresh weight with ethynyl estradiol co-treatment; format: in vivo, rat; settings: 10 mg/Kg oral plus ethynyl estradiol 0.01 mg/kg
Procedure: as §2

[6] = Pharmacokinetic studies in Sprague Dawley rats; format: in vivo; settings: rat, plasma, SD rats, oral dose of 5 mg/kg
Procedure: In-vivo pharmacokinetic parameters were generated in Sprague Dawley rats at a dose of 5 mg/kg by oral route of administration. The blood samples were drawn at 0.25, 0.5, 0.75, 1.0, 1.5, 2.0, 2.5, 4.0, 6, 8, 10, 12, 18, 24, 28, 36 and 48 hours, processed and analyzed by Liquid Chromatography-Mass Spectrometry (LC-MS). Plasma concentration at different time points were plotted to give Plasma Concentration Time Profile and the data was fitted non-compartmentally using Win NonLin 5.1 version software and the estimates of pharmacokinetic parameters were derived with SD mean values.

[7] = tested on: Immature 21 d old female SD rat; experiment: In vivo efficacy, BMD in immature female SD rats; settings: 10 mg/kg daily, one month; vehicle = 100
Procedure: Immature 21 d old female SD rat model was chosen, animals were randomized into four groups and treated with a daily dose of test agent or vehicle for one month and autopsied on day 31.
[…], the animals were shifted to metabolic cage for acclaimatization for 24 h with food and water. Post acclaimatization animals were further left in metabolic cage for 24 h with water but no food. Blood and urine samples were collected after 24 h. Various biochemical parameters like serum calcium, serum phosphorus, serum osteocalcin, serum alkaline phosphatase (ALP) were evaluated. The animals were autopsied on day 31 and lumbar vertebrae, femur and tibia bones were isolated, cleaned and fixed in 70% ethanol in saline and stored at 4° C. until BMD measurement. Initial and final body weight and uterine weight at autopsy were recorded. BMD measurements of region of interest (lumbar: global, L1-L4; femur: global, neck and mid-shaft; tibia: global, proximal and tibio-fibula junction point) was performed using a bone densitometer (Model 4500 Elite, Hologic) fitted with commercially available software (QDR 4500 ACCLAIM series) for a fan-beam DXA system that permits determination of bone densitometry and measurement of body composition in small animals in vivo.

stimulation of ALP activity [1]: non-significant | melting point: 160 to 162 °C
SMILES: Cc1c(O)ccc2c1OCC1c3ccccc3OC21 (stereo not drawn) [Compound S007-1499, 4-Methyl-6a,11a-dihydro-6H-benzo[4,5]furo[3,2-c]chromen-3-ol]

stimulation of ALP activity [1]: non-significant
SMILES: Cc1c(OCC#N)ccc2c1OCC1c3ccccc3OC21 (stereo not drawn) [Compound S007-1501, (4-Methyl-6a,11a-dihydro-6H-benzo[4,5]furo[3,2-e]chromen-3-yloxy)-acetonitrile]

osteoblast ALP activity vs vehicle control ([1]; calvarial osteoblasts, 48 h, 10^−12M to 10^−6M): significant increase | melting point: 240 to 242 °C
SMILES: O=c1c(-c2ccccc2O)coc2c(O)c(O)ccc12 [Compound S007-1351, 7,8-Dihydroxy-3-(2-hydroxy-phenyl)-chromen-4-one]
effect on adipogenesis [2]: inducers of adipogenesis

melting point: 202 to 204 °C
SMILES: c1ccc2c(c1)OC1c3ccc(OCCN4CCCCC4)cc3OCC21 (stereo not drawn) [Compound S-008-0399, 1-(2-(6a,11a-Dihydro-6H-benzofuro[3,2-c]chromen-3-yloxy)ethyl)piperidine]

melting point: 96 to 98 °C
SMILES: CC(C)Oc1ccc2c(c1)OCC1c3ccccc3OC21 (stereo not drawn) [Compound S-008-0398, 3-Isopropoxy-6a,11a-dihydro-6H-benzofuro[3,2-c]chromene]

melting point: 72 to 74 °C
SMILES: C=CCOc1ccc2c(c1)OCC1c3ccccc3OC21 (stereo not drawn) [Compound S-008-0625, 3-(Allyloxy)-6a,11a-dihydro-6H-benzofuro[3,2-c]chromene]

stimulation of ALP activity [1]: non-significant
SMILES: COc1ccc(-c2coc3cc(O)ccc3c2=O)c(OC)c1 [Compound S006-1713, 3-(2,4-Dimethoxy-phenyl)-7-hydroxy-chromen-4-one]
effect on osteoblast proliferation (MTT) [3]: did not have any effect

stimulation of ALP activity [1]: non-significant | melting point: 228 to 230 °C
SMILES: COc1ccccc1-c1coc2cc(O)c(Cl)cc2c1=O [Compound S007-1355, 6-Chloro-7-hydroxy-3-(2-methoxy-phenyl)-chromen-4-one]

stimulation of ALP activity [1]: non-significant | melting point: 196 to 198 °C
SMILES: Cc1c(O)ccc2c(=O)c(-c3ccccc3O)coc12 [Compound S007-1498, 7-Hydroxy-3-(2-hydroxy-phenyl)-8-methyl-chromen-4-one]

SMILES: C#C[C@]1(O)CC[C@H]2[C@@H]3CCc4cc(O)ccc4[C@H]3CC[C@@]21C [Ethnyl Estradiol, Ethynyl estradiol, reference compound]
Estrogenic Activity (uterine fresh weight) ([4]; reference standard, 0.01 mg/Kg): 98.3

stimulation of ALP activity [1]: non-significant | melting point: 210 to 212 °C
SMILES: COc1ccc(-c2coc3cc(O)ccc3c2=O)c(O)c1 [Compound S006-1714, 7-Hydroxy-3-(2-hydroxy-4-methoxy-phenyl)-chromen-4-one]
effect on osteoblast proliferation (MTT) [3]: did not have any effect

AUC ([6]; read-out: Area under curve (AUC)): 32.1 ± 12 ng·h/mL | Cmax ([6]; read-out: Maximum plasma concentration (Cmax)): 17.5 ± 1.76 ng/mL | half-life ([6]; read-out: elimination half life (T1/2) (converted)): 150 min | MRT ([6]; read-out: mean residence time (MRT)): 3.5 h | Tmax ([6]; read-out: time to achieve maximum plasma concentration (tmax) (converted)): 15 min | melting point: 148 to 152 °C
SMILES: Oc1ccc2c(c1)OCC1c3ccccc3OC21 (stereo not drawn) [Compound S006-1709, 6a,11a-Dihydro-6H-benzo[4,5]furo[3,2-c]chromen-3-ol]
Estrogenic Activity (uterine fresh weight) ([4]; 10 mg/Kg oral): 15.8 | Anti-Estrogenic Activity (uterine fresh weight) [5]: 96.86 | Anti-Estrogenic Activity, % (second line of cell) ([5]; relative to ethynyl estradiol): −1.5%^ | effect on osteoblast proliferation (MTT) [3]: no effect | Change in BMD, Femur Global [7]: 138.75 | Change in BMD, Femur Neck [7]: 141 | Change in BMD, Femur Shaft [7]: 167 | Change in BMD, Lumber Vertebra Global [7]: 120 | Change in BMD, Lumber Vertebra LV1 [7]: 126 | Change in BMD, Lumber Vertebra LV2 [7]: 124 | Change in BMD, Lumber Vertebra LV3 [7]: 90.3 | Change in BMD, Lumber Vertebra LV4 [7]: 125 | Change in BMD, Tibia Global [7]: 133 | Change in BMD, Tibia Head [7]: 115 | Change in BMD, Tibia TFSP [7]: 124

stimulation of ALP activity [1]: non-significant | melting point: > 250 °C
SMILES: O=c1c(-c2ccccc2O)coc2cc(O)c(Cl)cc12 [Compound S007-1354, 6-Chloro-7-hydroxy-3-(2-hydroxy-phenyl)-chromen-4-one]
